From paper PMC6253998, “Ring-substituted 4-Hydroxy-1H-quinolin-2-ones: Preparation and Biological Activity” (Molecules, 2009)
≈ marks a conversion by molar mass, not a printed value. Where “and” joins values, the source holds several entries; their conditions need not be identical. Equal entries are not always repeated. Where two headings read alike, the source gives them in different places.

Experiments:
[1] = tested on: Trichosporon beigelii 1188; assay: In vitro antifungal broth microdilution test; format: cell-based; settings: RPMI 1640, pH 7.0, 35 °C; for MIC: Trichosporon beigelii, 1188, read-out: MIC/IC80 TB
Method: (§1) The broth microdilution test was used for the assessment of in vitro antifungal activity of the synthesized compounds against Candida albicans ATCC 44859 (CA), Candida tropicalis 156 (CT), Candida krusei ATCC 6258 (CK), Candida glabrata 20/I (CG), Trichosporon beigelii 1188 (TB), Aspergillus fumigatus 231 (AF), Absidia corymbifera 272 (AC), and Trichophyton mentagrophytes 445 (TM). Fluconazole (FLU) was used as the standard of a clinically used antimycotic drug. The procedure was performed with twofold dilution of the compounds in RPMI 1640 (Sevapharma a.s., Prague, Czech Republic) buffered to pH 7.0 with 0.165 mol of 3-morpholino-propane-1-sulfonic acid (MOPS, Sigma, Germany). The final concentrations of the compounds ranged from 500 to 0.975 μmol/l. Drug–free controls were included. The MIC was defined as an 80% or greater (IC80) reduction of growth in comparison with the control. The values of MICs were determined after 24 and 48 h of static incubation at 35 °C. For T. mentagrophytes, the final MICs were determined after 72 and 120 h of incubation.

[2] = tested on: Aspergillus fumigatus 231; assay: In vitro antifungal broth microdilution test; format: cell-based; settings: RPMI 1640, pH 7.0, 35 °C; for MIC: Aspergillus fumigatus, 231, read-out: MIC/IC80 AF
Method: (§2) Fluconazole (FLU) was used as the standard of a clinically used antimycotic drug. The procedure was performed with twofold dilution of the compounds in […]., Prague, Czech Republic) buffered to pH 7.0 with 0.165 mol of 3-morpholino-propane-1-sulfonic acid (MOPS, Sigma, Germany). […] Drug-free controls were included. The MIC was defined as an 80% or greater (IC80) reduction of growth in comparison with the control.

[3] = tested on: Candida glabrata 20/I; assay: In vitro antifungal broth microdilution test; format: cell-based; settings: for MIC/IC80 CG / MIC: RPMI 1640, pH 7.0, 35 °C; for MIC: Nakaseomyces glabratus, 20/I, read-out: MIC/IC80 CG
Method: as §2

[4] = tested on: Candida tropicalis 156; assay: In vitro antifungal broth microdilution test; format: cell-based; settings: RPMI 1640, pH 7.0, 35 °C; for MIC: Candida tropicalis, 156, read-out: MIC/IC80 CT
Method: as §2

[5] = tested on: Candida albicans ATCC 44859; assay: In vitro antifungal broth microdilution test; format: cell-based; settings: RPMI 1640, pH 7.0, 35 °C; for MIC: Candida albicans, ATCC44859, read-out: MIC/IC80 CA
Method: as §2

[6] = tested on: Candida krusei ATCC 6258; assay: In vitro antifungal broth microdilution test; format: cell-based; settings: RPMI 1640, pH 7.0, 35 °C; for MIC: Pichia kudriavzevii, ATCC6258, read-out: MIC/IC80 CK
Method: as §2

[7] = tested on: Trichophyton mentagrophytes 445; assay: In vitro antifungal broth microdilution test; format: cell-based; settings: for MIC/IC80 TM / MIC: RPMI 1640, pH 7.0, 35 °C; for MIC: Trichophyton mentagrophytes, 445, read-out: MIC/IC80 TM
Method: as §2

[8] = tested on: Absidia corymbifera 272; assay: In vitro antifungal broth microdilution test; format: cell-based; settings: RPMI 1640, pH 7.0, 35 °C; for MIC: Lichtheimia corymbifera, 272, read-out: MIC/IC80 AC
Method: as §2

[9] = Lipophilicity HPLC determination (capacity factor k / log k); format: physicochemical; settings: RP-HPLC, C18 column, MeOH 55.0% / H2O 45.0%, isocratic
Method: Hydrophobicities (log P/Clog P values) of the compounds 1-12 were calculated using two commercially available programs and also measured by means of the reversed phase high performance liquid chromatography (RP-HPLC) method for lipophilicity measurement. The procedure was performed under isocratic conditions with methanol as an organic modifier in the mobile phase using an end-capped non-polar C18 stationary RP column. The capacity factors k were determined and subsequent log k values were calculated.
The HPLC separation module Waters Alliance 2695 XE and Waters Photodiode Array Detector 2996 (Waters Corp., Milford, MA, U.S.A.) were used. A Symmetry® C18 5 μm, 4.6 × 250 mm, Part No. WAT054275, (Waters Corp., Milford, MA, U.S.A.) chromatographic column was used. The HPLC separation process was monitored by Millennium32® Chromatography Manager Software, Waters 2004 (Waters Corp., Milford, MA, U.S.A.). The mixture of MeOH p.a. (55.0%) and H2O-HPLC – Mili-Q Grade (45.0%) was used as a mobile phase. The total flow of the column was 0.9 mL/min, injection 30 μL, column temperature 30 °C and sample temperature 10 °C. The detection wavelength 210 nm was chosen. The KI methanolic solution was used for the dead time (TD) determination. Retention times (tR) were measured in minutes. The capacity factors k were calculated using the Millennium32® Chromatography Manager Software according to formula k = (tR - tD) / tD, where tR is the retention time of the solute, whereas tD denotes the dead time obtained via an unretained analyte. Log k, calculated from the capacity factor k, is used as the lipophilicity index converted to log P scale.

[10] = tested on: eight fungal strains; assay: In vitro antifungal screening, overall verdict; format: cell-based; settings: especially against Candida albicans ATCC 44859
Method: as §1

[11] = tested on: spinach chloroplasts; assay: Inhibition of oxygen evolution rate (OER) / photosynthetic electron transport in spinach chloroplasts; format: biochemical, Spinacia oleracea L.; settings: for IC50: DCPIP photoreduction, pH 7.2
Method: Chloroplasts were prepared from spinach (Spinacia oleracea L.) according to Masarovicova and Kralova. The inhibition of photosynthetic electron transport (PET) in spinach chloroplasts was determined spectrophotometrically (Genesys 6, Thermo Scientific, U.S.A.) using an artificial electron acceptor 2,6-dichlorophenol-indophenol (DCPIP) according to Kralova et al. and the rate of photosynthetic electron transport was monitored as a photoreduction of DCPIP. The measurements were carried out in phosphate buffer (0.02 mol/L, pH 7.2) containing sucrose (0.4 mol/L), MgCl2 (0.005 mol/L) and NaCl (0.015 mol/L). The chlorophyll content was 30 mg/L in these experiments and the samples were irradiated (~100 W/m^2) from 10 cm distance with a halogen lamp (250 W) using a 4 cm water filter to prevent warming of the samples (suspension temperature 22 °C). The studied compounds were dissolved in DMSO due to their limited water solubility. […] The inhibitory efficiency of the studied compounds was expressed by IC50 values, i.e. by molar concentration of the compounds causing 50% decrease in the oxygen evolution rate relative to the untreated control.

[12] = tested on: spinach chloroplasts; parameters: method as in earlier work; settings: standard, read-out: OER inhibition IC50; cited from earlier work

Molecule | log k [9] | in vitro antifungal activity (in words) [10] | IC50 [11] [µM] | MIC ([1]; 24h) [µM] | MIC ([1]; 48h) [µM] | MIC ([2]; 24h) [µM] | MIC ([2]; 48h) [µM] | MIC ([3]; 24h) [µM] | MIC ([3]; 48h) [µM] | MIC ([4]; 24h) [µM] | MIC ([4]; 48h) [µM] | MIC ([5]; 24h) [µM] | MIC ([5]; 48h) [µM] | MIC ([6]; 24h) [µM] | MIC ([6]; 48h) [µM] | MIC ([7]; 72h) [µM] | MIC ([7]; 120h) [µM] | MIC ([8]; 24h) [µM] | MIC ([8]; 48h) [µM] | also measured
3-(4-Carboxy-3-hydroxyphenylcarbamoyl)-4-hydroxy-2-oxo-1,2-dihydroquinoline-6-carboxylic acid [Compound 12] | 0.0093 | only a moderate activity | 321 |  |  |  |  |  |  |  |  |  |  |  |  |  |  |  |  | MIC/IC80 TB ([1]; 24h): 125 µM; MIC/IC80 TB ([1]; 48h): >500 µM; MIC/IC80 AF ([2]; 24h): 500 µM; MIC/IC80 AF ([2]; 48h): >500 µM; MIC/IC80 CG ([3]; 24h): 125 µM; MIC/IC80 CG ([3]; 48h): 250 µM; MIC/IC80 CT ([4]; 24h): 500 µM; MIC/IC80 CT ([4]; 48h): >500 µM; MIC/IC80 CA ([5]; 24h): 62.50 µM; MIC/IC80 CA ([5]; 48h): 125 µM; MIC/IC80 CK ([6]; 24h): >500 µM; MIC/IC80 CK ([6]; 48h): >500 µM; MIC/IC80 TM ([7]; 72h): 500 µM; MIC/IC80 TM ([7]; 120h): >500 µM; MIC/IC80 AC ([8]; 24h): 500 µM; MIC/IC80 AC ([8]; 48h): >500 µM
O=C(O)c1cc2c(O)cc(=O)[nH]c2cc1O [Compound 4, 4,7-Dihydroxy-2-oxo-1,2-dihydroquinoline-6-carboxylic acid] | 0.0080 | only a moderate activity | 538 | 62.5 (≈ 13.8 µg/mL) | > 500 | 500 (≈ 111 µg/mL) | > 500 | 62.5 (≈ 13.8 µg/mL) | 250 (≈ 55.3 µg/mL) | 500 (≈ 111 µg/mL) | > 500 | 15.6 (≈ 3.45 µg/mL) | 62.5 (≈ 13.8 µg/mL) | > 500 | > 500 | > 500 | > 500 | > 500 | > 500 | antifungal activity against Candida glabrata 20/I (in words) [3]: medium activity
O=C(O)c1ccc2[nH]c(=O)c(/N=N/c3cc(Cl)c([N+](=O)[O-])cc3Cl)c(O)c2c1 [Compound 8, (E)-3-[(2,5-Dichloro-4-nitrophenyl)diazenyl]-4-hydroxy-2-oxo-1,2-dihydroquinoline-6-carboxylic acid] | 0.6394 | only a moderate activity | 126 | 250 (≈ 106 µg/mL) | > 250 | 125 (≈ 52.9 µg/mL) | 250 (≈ 106 µg/mL) | 250 (≈ 106 µg/mL) | > 250 | 250 (≈ 106 µg/mL) | > 250 | 31.2 (≈ 13.2 µg/mL) | 125 (≈ 52.9 µg/mL) | 250 (≈ 106 µg/mL) | 250 (≈ 106 µg/mL) | 62.5 (≈ 26.4 µg/mL) | 125 (≈ 52.9 µg/mL) | 62.5 (≈ 26.4 µg/mL) | 250 (≈ 106 µg/mL) | antifungal activity against Trichophyton mentagrophytes 445 (in words) [7]: medium activity
CCOC(=O)c1c(O)c2ccccc2[nH]c1=O [Compound 9, Ethyl 4-hydroxy-2-oxo-1,2-dihydroquinoline-3-carboxylate] | 0.4595 |  | 494 | > 500 | > 500 | > 500 | > 500 | > 500 | > 500 | > 500 | > 500 | > 500 | > 500 | > 500 | > 500 | > 500 | > 500 | > 500 | > 500 | OER inhibition effectiveness relative to compound 1 [11]: approximately twice as effective as compound 1
O=C(O)c1c(O)c2ccccc2[nH]c1=O [Compound 10, 4-Hydroxy-2-oxo-1,2-dihydroquinoline-3-carboxylic acid] | 0.0118 |  | 567 | > 500 | > 500 | > 500 | > 500 | > 500 | > 500 | > 500 | > 500 | > 500 | > 500 | > 500 | > 500 | > 500 | > 500 | > 500 | > 500 | 
O=C(O)c1ccc(NC(=O)c2c(O)c3cc(C(=O)O)ccc3[nH]c2=O)cc1 [Compound 11, 3-(4-Carboxyphenylcarbamoyl)-4-hydroxy-2-oxo-1,2-dihydroquinoline-6-carboxylic acid] | 0.0081 |  | 380 | > 500 | > 500 | > 500 | > 500 | > 500 | > 500 | > 500 | > 500 | > 500 | > 500 | > 500 | > 500 | > 500 | > 500 | > 500 | > 500 | 
CN(C)C(=O)Nc1ccc(Cl)c(Cl)c1 [DCMU, 3-(3,4-dichlorophenyl)-1,1-dimethylurea] |  |  |  |  |  |  |  |  |  |  |  |  |  |  |  |  |  |  |  | IC50 [12]: ~1.9 µM and 1.9 µM
